Experimental findings from PubChem BioAssay AID2252 (Southern Research Specialized Biocontainment Screening …, 2010) are described below.

The test system of the test is THP-1 viability, CellTiter-Glo luminescence, 72 h. Put plainly: PubChem AID 2252.
Consider `O=C(N/N=C/c1cc(Cl)ccc1O)c1ccncc1`, for which the EC50 was 6.13 µM.

Turning to `COc1cc(CNc2ccc(N3CCN(C(C)=O)CC3)cc2)ccc1OCc1ccccc1`, the EC50 was 6.5 µM.

For `CC(Oc1ccc(Br)cc1)c1nc2c3ccccc3nc(=S)n2[nH]1` (centres undefined), the EC50 is 17.9 µM. Then `Oc1cccc(C=NCc2ccccc2)c1O`, with 38.9 µM; and `Cc1nc2c(=O)n(C)c(=O)nc-2n(C)n1`, with 2.17 µM. For the compound `C/C(=N\Nc1ccc2nncn2n1)c1ccccn1`, the EC50 was 6.13 µM. Next, `COc1ccc(C(=O)Nc2cc3c(cc2OC)CCCC3)cc1Br`: below 0.1 µM.

On to `O=C(CC(=O)c1ccccc1O)c1cccc(F)c1`, for which the EC50 was 26.2 µM. Then `CCN(CCNCC(O)COc1ccccc1C(C)C)c1cccc(C)c1` (centres undefined), with 11 µM. Then `O=C(CC(=O)c1c(F)cccc1Cl)c1ccccc1O`, with 27.4 µM.

Consider `O=[N+]([O-])c1cc(Cl)cc(/C=N/NC(=S)Nc2ccc(S(=O)(=O)N3CCOCC3)cc2)c1O`, for which the EC50 is 27.1 µM. Next, `O=C(O)c1ccc(NC2=C(Cl)C(=O)c3ccccc3C2=O)cc1`: 11.5 µM; `CCCCCCCCCCn1c2c(c(=N)c3c1CCC3)CCC2`: 0.21 µM; `Cc1cc(C)c2sc(N(CCCN(C)C)C(=O)COc3ccc(Cl)cc3)nc2c1`: 17.7 µM. Then `c1ccc2c(NCCc3c[nH]c4ccccc34)c3ccccc3nc2c1`, with 4.35 µM; and `CCc1ccc(-c2nn(-c3ccccc3)cc2CSC(=N)N)cc1`, with 5.18 µM; and `CCN1CCN(CCNC(=O)c2ccc3c(c2)N(Cc2ccc(F)cc2)C(=O)/C(=C/c2ccccc2)S3)CC1`, with 9.43 µM. Then `Cc1cc(NC(=O)/C=C/C(=O)N(c2ccccc2C)C(C(=O)NC2CCCC2)c2ccc(F)cc2)no1` (centres undefined), with 37.5 µM. On to `Cc1nonc1C(=O)N/N=C/c1ccc([N+](=O)[O-])o1`, for which the EC50 was 40.7 µM. Then `CN1CC=C(/C=C/c2ccc(-c3ccccc3)cc2)CC1`, with 10.5 µM.

Regarding `O=C(N/N=C/c1ccccc1O)C1SCCCS1`, the 50% effective concentration (EC50) was 26.1 µM. Then `O=C1c2ccccc2C2=Nc3ccccc3SC(c3ccccc3F)C12` (centres undefined), with 13.8 µM. As for `O=C(N/N=C\c1cccc([N+](=O)[O-])c1O)C1COc2ccccc2O1` (centres undefined), the EC50 is 25.4 µM. Next, `C[C@H]1c2cccc(O)c2C(O)=C2C(=O)[C@]3(O)C(O)=C(C(N)=O)C(=O)[C@@H](N(C)C)[C@@H]3[C@@H](O)[C@@H]21`: 29 µM; `OC(CN1CCCCC1)Cn1c2ccccc2c2cc(Br)ccc21` (centres undefined): 17.5 µM. On to `CC1CCC(C(C)C)C(OC(=O)C[n+]2cc(-c3ccc(Cl)cc3)n3c2CCC3)C1` (centres undefined), for which the EC50 is 16.5 µM. Then `Cc1cc(=O)[nH]c(-n2nc(C)cc2C)n1`, with 27.8 µM. With `O=C(/C=C/c1ccc(F)cc1)NC(=S)NNC(=O)c1cnccn1`, the 50% effective concentration (EC50) is 6.17 µM. Then `N#Cc1ccc(C2=NC(C(F)(F)F)(C(F)(F)F)c3c(n(Cc4ccco4)c(=O)[nH]c3=O)N2)cc1`, with 31.2 µM; and `C=CCc1cc(Cl)ccc1OCCCNCCO`, with 43.1 µM. Then `Cc1cc([N+](=O)[O-])cc(/C=N/n2c(C)nc3ccccc3c2=O)c1O`, with 28.2 µM; and `COc1cc2c(cc1OC)[C@H](Cc1ccc(O)cc1)NCC2`, with 23.4 µM. Then `c1ccc2c(SCc3cn4ccccc4n3)nncc2c1`, with below 0.1 µM; and `CN(C)CCCNC(=O)c1ccc(-c2nc(-c3ccc(Cl)cc3)cs2)cc1`, with 3.96 µM.

In the case of `O=C(CSc1ccc(Cl)cc1)c1ccco1`, the EC50 is below 0.1 µM.

Consider `Cc1ccc(Nc2cc(C)c3c(O)cccc3n2)cc1C`, for which the EC50 was 23.8 µM.

Regarding `O=[N+]([O-])c1cc(Cl)c2cccnc2c1O`, the concentration giving a half-maximal response (EC50) was 28.7 µM. Then `CCCSc1nc2cc(OC)c(OC)cc2c(=N)n1CCCN1CCOCC1`, with 45.2 µM; and `O=C(CSc1ccccn1)Nc1nonc1[N+](=O)[O-]`, with 6.9 µM. Then `O=C(COc1ccc(Br)cc1CNCCc1ccccc1)NCc1ccccc1`, with 10.4 µM; and `O=C(Nc1ccc(-c2nc3ccccc3[nH]2)cc1)c1ccco1`, with 10.6 µM; and `CCCCCCCCn1ccc(=N)cc1`, with 5.47 µM.

Turning to `O=C1C(=O)c2ccccc2-c2ccccc21`, the EC50 was 2.22 µM. Next, `COc1ccc(C[C@H]2CN3C(=NC[C@H]3Cc3ccccc3)N2CCNC(=O)c2ccc(C)c(Br)c2)cc1`: 7.83 µM. Next, `CCCCCCCCCCC[N+](C)(C)CC/C=C1/c2ccccc2Sc2ccc(Cl)cc21`: 2.58 µM. `CC(=O)NNC(=S)NC(=O)c1ccccc1`: the EC50 is 44.8 µM. Next, `O=C1c2ccccc2NC(c2ccc(-c3ccc(Br)cc3)o2)N1O` (centres undefined): 10.6 µM; `Cc1cc2oc(=O)cc(CN3CCN(C/C=C/c4ccccc4)CC3)c2cc1O`: 18.6 µM. Next, `C/C(=N\NC(=O)c1ccc(Cl)cc1)c1ccccn1`: 0.97 µM; `C#CCOCCOCCOCCNc1nc(N2CCN(C(=O)CCCCCCCCCCNC(=O)[C@H](CO)n3cc(CCCSC)nn3)CC2)nc(N2CCN(C(=O)CCCCCCCCCCNC(=O)[C@H](CCCN=C(N)N)n3cc(C[C@@H](C)CC)nn3)CC2)n1`: 9.01 µM; `CCCCNCCCOc1cccc(Cl)c1Cl`: 28.2 µM.

For `O=C(Nc1cccc(Cl)c1)Nc1nccs1`, the EC50 is 33.8 µM. Next, `Cc1ccc(-c2c[n+](Cc3ccc(Cl)cc3)c3n2CCC3)cc1`: 10.1 µM; `CCN(CC)CCn1c(=N)n(CC(O)COc2cccc(C)c2)c2ccccc21` (centres undefined): 16.2 µM; `CN1CCN(/N=C/c2c3ccccc3c(Cl)c3ccccc23)CC1`: 13.1 µM. Then `Cc1ccc(Nc2nc(NCCO)c3ccccc3n2)cc1C`, with 3.06 µM; and `OC1CCCN(Cc2ccc3ccc4cccc5ccc2c3c45)C1` (centres undefined), with 15.2 µM; and `O=c1c2ccccc2nc(N/N=C/c2c(O)ccc3ccccc23)n1O`, with 0.99 µM. Then `O=C(CCN1CCOCC1)c1ccc(Br)cc1`, with 43.2 µM; and `COc1ccc(CNCCc2c[nH]c3ccccc23)c(OC)c1C`, with 8.57 µM. For the compound `Fc1cccc(Nc2c3c(nc4ccccc24)CCC3)c1`, the EC50 is 26.3 µM.

As for `CNCCC=C1c2ccccc2CCc2ccccc21`, the EC50 was 22.5 µM.

Consider `Cc1ccccc1C(=O)NNC(=S)NC(=O)COc1ccccc1`, for which the EC50 is 48.1 µM. Then `Fc1ccc(Nc2nnc(C(F)(F)F)s2)cc1Cl`, with 18.5 µM; and `CCOC(=O)N1CCN(C(=S)NC(=O)c2ccc(Br)cc2)CC1`, with below 0.1 µM; and `Cc1ccc(-c2csc(NC(=O)C[n+]3cc(-c4ccccc4)n4c3CCC4)n2)cc1`, with 8.47 µM.

As to `Cc1ccc(N=Cc2cc(Br)cc(Cl)c2O)cc1`, the EC50 is 49.5 µM. Then `C#CCOCCOCCOCCNc1nc(N2CCN(C(=O)CCCCCCCCCCNC(=O)[C@H]([C@@H](C)CC)n3cc(CCCCN=C(N)N)nn3)CC2)nc(N2CCN(C(=O)CCCCCCCCCCNC(=O)[C@@H]([C@H](C)O)n3cc(C)nn3)CC2)n1`, with 2.98 µM; and `C/C(=N/Nc1ccnc2cc(Cl)ccc12)c1ccc(N)cc1`, with 8.34 µM; and `S=C(Nc1ccc(Cl)c(Cl)c1)NC1CCN(Cc2ccccc2)CC1`, with 10.7 µM. With `Clc1ccc(-c2cc(C3CCNCC3)[nH]n2)c(Cl)c1`, the EC50 is 24.3 µM. On to `COc1nccnc1NS(=O)(=O)c1ccc(N=Cc2c(C)[nH]n(-c3ccc(C)c(C)c3)c2=O)cc1`, for which the EC50 was 14.4 µM. Then `c1ccc(Nc2ccnc(Nc3ccccc3)n2)cc1`, with 41.7 µM. As to `Cc1ccc(CNCCC2=CCCCC2)cc1`, the half-maximal effective concentration (EC50) was 26.7 µM. Next, `CC1(C)Oc2ccc3ccc(=O)oc3c2/C(=C/NCCN/C=C2\C(=O)C(C)(C)Oc3ccc4ccc(=O)oc4c32)C1=O`: below 0.1 µM.

Take `Cc1cc(C2CCCCC2)n(O)c(=O)c1`: the concentration for a half-maximal effect (EC50) is 0.63 µM. Then `COc1ccc(Nc2cc(C)nc(NCc3ccccc3)n2)cc1`, with 4.79 µM; and `Nc1nc(Nc2ccccc2)nc2ccccc12`, with 3.32 µM; and `Oc1ccc(N=Nc2ccc(Br)cc2)c(O)c1`, with 17.8 µM. Then `CCOc1ccc(Nc2nc(NCC3CCCO3)c3ccccc3n2)cc1` (centres undefined), with 2.28 µM; and `CCCCCCCCC1=NCCc2c1[nH]c1ccccc21`, with 15 µM; and `C[C@H]1c2cccc(O)c2C(O)=C2C(=O)[C@]3(O)C(O)=C(C(N)=O)C(=O)[C@@H](N(C)C)C3[C@@H](O)C21` (some centres undefined), with 27.5 µM.

For the compound `CCCCCCCNC(=O)C1(CC2CC(c3cccc(Br)c3)=NO2)CCNCC1` (centres undefined), the EC50 is 7 µM. `C#CCOCCOCCOCCNc1nc(N2CCN(C(=O)CCCCCCCCCCNC(=O)[C@H](CCCCN)n3cc(CCO)nn3)CC2)nc(N2CCN(C(=O)CCCCCCCCCCNC(=O)[C@H](CCCN=C(N)N)n3cc(C[C@@H](C)CC)nn3)CC2)n1`: the EC50 is 11.3 µM. Then `O=C(CCl)NC1CCCc2ccccc21` (centres undefined), with 25.7 µM; and `COc1ccc(OCc2n(CC(=O)OC3CC(C)CCC3C(C)C)c3ccccc3[n+]2C)cc1` (centres undefined), with 1.63 µM; and `CCCCCCCCCC[N+](C)(C)CC/C=C1/c2ccccc2Sc2ccc(Cl)cc21`, with 1.99 µM. Next, `Cc1cc(N2CCC(C)CC2)nc(NCc2ccccc2)n1`: 6.23 µM; `Cc1cc(C)n(-c2nc(SCCN(C)C)c3c4c(sc3n2)CCCC4)n1`: 3.25 µM; `O=C1C2=C(Nc3ccccc3SC2c2ccco2)c2ccccc21` (centres undefined): 23.6 µM. Then `O=C(NC(=C(Cl)Cl)S(=O)(=O)c1ccc(Cl)cc1)c1ccccc1`, with 23.2 µM. As to `CC1CCc2cc(F)cc3c(=O)c(C(=O)O)cn1c23` (centres undefined), the EC50 was below 0.1 µM.

With `CC(=O)Nc1ccc(NC(=O)CSc2ccc(-c3ccco3)nn2)cc1`, the EC50 was below 0.1 µM. Then `CCOC(=O)COc1cccc2c(=O)n(CC(=O)N3CCCCC3)ccc12`, with 24.5 µM.

With `COC(=O)c1cc(CSC(=N)N)ccc1OCCC(C)C`, the EC50 is 14.7 µM. Then `CCCCCC[N+](C)(C)CC/C=C1/c2ccccc2Sc2ccc(Cl)cc21`, with 5.39 µM; and `COc1cc(Br)cc(/C=N/c2ncn[nH]2)c1O`, with 49.9 µM; and `C=C(C)COc1ccc2c(C)c(CCC(=O)NC3CC3)c(=O)oc2c1`, with below 0.1 µM. With `O=C(CN1C2=NCCCN2c2ccccc21)c1ccc([N+](=O)[O-])cc1`, the EC50 was 32.5 µM.
